# US20260365673A1, “PYRROLO[2,3-D]PYRIMIDIN-4-AMINE DERIVATIVE AND USE THEREOF IN MEDICINE” (HAISCO PHARMACEUTICAL GROUP CO., LTD., priority 2023, published 2026)
# Legend:
# [1] = Pharmacokinetic Test in Rats (Inhalation Administration); details: rat, in vivo, inhaled or intranasal, male SD rats, single dose 0.03 mg/kg; for Cmax / AUC(0-t): lung tissue; for AUC(0-t): read-out: Lung AUC0-t; for Kp: read-out: Lung AUC0-t/plasma AUC0-t
# Method: 4: Pharmacokinetic Test in Rats (Inhalation Administration)
# The samples were analyzed quantitatively by LC-MS/MS.
# [2] = 12-week, PATENT-1, riociguat group, cited from earlier work
Structure (SMILES),Cmax [1] [ng/mL],AUC(0-t) [1] [ng·h/mL],Kp [1],anemia ([2]; placebo 2%) [%],gastroesophageal reflux disease ([2]; placebo 2%) [%],diarrhea ([2]; placebo 8%) [%]
CC(C)(Cc1cccc([C@@]2(C)C(=O)Nc3nc(-c4nn(CCC(F)(F)C(F)(F)F)c5cc(Cl)cnc45)nc(N)c32)c1)C(=O)O [Compound 6-1],2820,5170,659,,,
"CC(C)(Cc1csc(C2(C)C(=O)Nc3nc(-n4nc(Cc5ccccc5F)c5ncc(F)cc54)nc(N)c32)n1)C(=O)O (single isomer, unassigned) [Compound 35-1]",2540,5430,,,,
CC(C)(Cc1csc([C@]2(C)C(=O)Nc3nc(-c4nc(Cc5ccccc5F)n5ncccc45)nc(N)c32)n1)C(=O)O [Compound 19-1],2840,12200,245,,,
"CC(C)(Cc1csc(C2(C)C(=O)Nc3nc(-n4nc(Cc5cccc(F)c5F)c5ncc(F)cc54)nc(N)c32)n1)C(=O)O (single isomer, unassigned) [Compound 36-1]",4070,10100,49.1,,,
CC(C)(Cc1csc([C@]2(C)C(=O)Nc3nc(-n4nc(CCC(F)(F)C(F)(F)F)c5cc(F)ccc54)nc(N)c32)n1)C(=O)O [Compound 17-1],1750,2020,48.4,,,
"COC(=O)N(C)c1c(N)nc(-c2nn(Cc3ccccc3F)c3ncccc23)nc1N [riociguat, Riociguat]",,,,7,5,12
"CC(C)(Cc1csc([C@]2(C)C(=O)Nc3nc(-n4nc(CCC(F)(F)C(F)(F)F)c5cc(Cl)ccc54)nc(N)c32)n1)C(=O)O (single isomer, unassigned) [Compound 4-1]",2350,2460,77.1,,,

# Second part, led by results:
Cmax [1] [ng/mL],AUC(0-t) [1] [ng·h/mL],Kp [1],Structure (SMILES),anemia ([2]; placebo 2%) [%],gastroesophageal reflux disease ([2]; placebo 2%) [%],diarrhea ([2]; placebo 8%) [%]
2850,4500,43.4,CC(C)(Cc1csc([C@]2(C)C(=O)Nc3nc(-c4nc(CCC(F)(F)C(F)(F)F)n5cc(F)ccc45)nc(N)c32)n1)C(=O)O [Compound 45-1],,,
2980,3630,65,CC(C)(Cc1csc([C@]2(C)C(=O)Nc3nc(-c4nc(CCC(F)(F)C(F)(F)F)n5ncccc45)nc(N)c32)n1)C(=O)O [Compound 3-1],,,
273,220,,"CC(C)(Cc1csc([C@]2(C)C(=O)Nc3nc(-c4nn(CCC(F)(F)C(F)(F)F)c5ncccc45)nc(N)c32)n1)C(=O)O [Control compound 1, reference compound]",,,
1180,608,97.9,CC(C)(Cc1csc([C@]2(C)C(=O)Nc3nc(-n4c(=O)n(CCC(F)(F)C(F)(F)F)c5cc(F)ccc54)nc(N)c32)n1)C(=O)O [Compound 31-1],,,
1740,,83.6,CC(C)(Cc1csc([C@]2(C)C(=O)Nc3nc(-n4c(=O)n(Cc5ccccc5F)c5cc(F)ccc54)nc(N)c32)n1)C(=O)O [Compound 38-1],,,
1730,3280,,"CC(C)(Cc1csc(C2(C)C(=O)Nc3nc(-n4nc(CCC(F)(F)C(F)(F)F)c5ncc(F)cc54)nc(N)c32)n1)C(=O)O (single isomer, unassigned) [Compound 37-1]",,,
